How the values were obtained:
PDK1 = PDK1 (Homo sapiens (Human), UniProt O15530); test: PDK1 kinase assay (coupled PDK1/AKT/FAM-crosstide assay, IMAP fluorescence polarization); format: biochemical; settings: inhibition of phospo-PDK1 in vitro
Procedure: A PDK1 kinase assay was performed as follows. PDK1 (amino acids 51-359) and AKT2 (amino acids 140-467 fused to PIFtide, amino acids […]) were expressed as N-terminally tagged GST fusion proteins in insect cells and purified to homogeneity. Enzyme activity was determined in a coupled PDK1/AKT/FAM-crosstide assay and phosphorylation of FAM-crosstide was determined by standard IMAP protocol (Molecular Devices). For inhibition studies, compounds were titrated 4-fold in DMSO and diluted 40-fold into assay buffer (10 mM Tris HCl pH7.2; 10 mM MgCl2; 0.01% Triton X-100; 1 mM DTT) containing PDK1, AKT2, and FAM-crosstide (final concentrations: 0.75 nM PDK1, 10 nM unphosphorylated AKT2, and 100 nM crosstide substrate). The kinase reaction was initiated by adding ATP to a final concentration of 40 μM of PDK1 and incubated at 25° C. for 30 min. To detect assay product, the kinase reaction was combined with Progressive Binding Solution (1:600 Progressive Binding Reagent, 50% Buffer A, 50% Buffer B, Molecular Devices) in a 1:3 ratio. The mixture was incubated for 2 hours at 25° C. and the plate was scanned on an Analyst AD with excitation at 485 nm and emission at 530 nm. The fluorescence polarization value “P” is defined by the equation below. The value “mP” is generated by multiplying the P value for each reaction well by a factor of 1000. The value “ΔmP” for each well is the mP value for that well minus the mP value for the average negative control. P=(Fpar−Fperp)/(Fpar+Fperp) Eq.:
Where “par” is fluorescence intensity parallel to the excitation plane; and “perp” is fluorescence intensity perpendicular to the excitation plane. ΔmP values were plotted as a function of compound concentration and the data were analyzed with a 4-parameter fit using GraphPad Prism software.

[1] = system: phospho-akt (Thr308) in PC-3 cells; test: Inhibition of phospho-akt (Thr308) in PC-3 cells, MSD phospho-akt 308 ELISA kit; format: cell-based; settings: Homo sapiens; inhibition of P308 Akt in PC-3 cells, 2 hours, no serum, MSD; read-out: EC50
Procedure: PC-3 cells were harvested by trypsin and counted. Cells were plated in coated 96-well flat bottom plates (plate 15,000 cells/well in 100 ul growth media (10% FBS, 1× pen-strep) an place in an incubator overnight.
Subject inhibitors were stocked at 50 mM, then diluted to 30 mM (4.8 μl cpd plus […] DMSO) in 100% DMSO. Three-fold dilutions were performed from 30 mM stock. (4 μl into 8 ul 100% DMSO). Aliquots of 1.0 μl of inhibitor solution were transferred into SF Medium (using deep well block).
Control wells were prepared as follows. For DMSO high controls, 1.0 μl of 100% DMSO was added into 1.0 ml SF. For low controls for PC-3 cells, 5 μM of Wortmannin (10 μl of 1 mM Wortmannin stock was added into 2 ml SF Medium. The supernatant media was removed and the plate was blotted. 100 μl of controls/media or compound/media were added to cells and placed in incubator for 2 hours. The supernatant media was removed and the plate was blotted. 55 μl of the MSD complete lysis buffer was added (10 mls Tris Lysis buffer, 200 ul protease inhibitor, 100 ul phosphatase inhibitor 1, and 100 ul phosphatase inhibitor II). The plate was placed on a plate shaker for 60 mins at 4 deg.
MSD plates were blocked for 1 hour by adding 150 μl of Blocking Solution (3% BSA) to each well. The MSD plates were washed 4× with TBST, and 50 μl lysates were transferred to MSD plate and place on plate shaker shake at 4 degrees O/N, light shaking (speed 3.5). The plate was washed 4× with TBST.
25 μl of Ab detection solution was added to each well. The plate was sealed and incubated 1 hr RT, light shaking (speed 3.5). The plate was washed 4 times with TBST. 150 μl of Read Buffer was added (5 mls 4×MSD Read Buffer+15 mls water). Finally the plate was read immediately on the MSD plate reader.

PDK1, sequence (O15530 51-359): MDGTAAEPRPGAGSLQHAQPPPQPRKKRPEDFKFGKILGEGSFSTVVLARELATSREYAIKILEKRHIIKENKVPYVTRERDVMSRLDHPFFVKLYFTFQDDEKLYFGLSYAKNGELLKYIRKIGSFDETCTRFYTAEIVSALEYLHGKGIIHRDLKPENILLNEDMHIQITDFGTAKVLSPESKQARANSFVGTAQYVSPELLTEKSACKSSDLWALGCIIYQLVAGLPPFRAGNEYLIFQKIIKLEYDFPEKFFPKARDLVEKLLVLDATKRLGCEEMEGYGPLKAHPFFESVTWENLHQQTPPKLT

SMILES | IC50 (PDK1) | EC50 [1]
COc1ccnc(NCc2ccc(-c3ccc4ncnc(N)c4c3)s2)c1C(=O)N[C@@H](C)c1ccc(F)cc1 [Ex. 7.6, (S)-2-(((5-(4-aminoquinazolin-6-yl)thiophen-2-yl)methyl)amino)-N-(1-(4-fluoro-phenyl)ethyl)-4-methoxynicotinamide] | < 0.1 µM | < 1 µM
CCOc1ccnc(NCc2ccc(-c3ccc4ncnc(N)c4c3)s2)c1C(=O)N[C@@H](C)c1ccc(F)cc1 [Ex. 7.7, (S)-2-(((5-(4-aminoquinazolin-6-yl)thiophen-2-yl)methyl)amino)-N-(1-(4-fluoro-phenyl)ethyl)-4-ethoxynicotinamide] | 0.1 to 1 µM | > 10 µM
Nc1ncnc2ccc(-c3ccc(CNc4nccc5ncn(Cc6ccc(F)c(F)c6)c(=O)c45)s3)cc12 [Ex. 7.8] | < 0.1 µM | < 1 µM
C[C@@H](c1ccc(F)cc1)n1cnc2ccnc(NCc3ccc(-c4ccc5ncnc(N)c5c4)s3)c2c1=O [Ex. 7.9] | < 0.1 µM | < 1 µM
Nc1ncnc2ccc(-c3ccc(CNc4nc(Cl)cc5ncn(Cc6ccc(F)c(F)c6)c(=O)c45)s3)cc12 [Ex. 7.17, 5-({[5-(4-aminoquinazolin-6-yl)thiophen-2-yl]methyl}amino)-7-chloro-N-3-(3,4-difluorobenzyl)pyrido [4,3-d]pyrimidin-4(3H)-one] | < 0.1 µM | 1 to 10 µM
Nc1ncnc2ccc(-c3ccc(CNc4nccc5c4C(=O)N(Cc4ccc(F)c(F)c4)CC5)s3)cc12 [Ex. 7.18, 8-({[5-(4-aminoquinazolin-6-yl)thiophen-2-yl]methyl}amino)-2-(3,4-difluorobenzyl)-3,4-dihydro-2,7-naphthyridin-1(2H)-one] | < 0.1 µM | < 1 µM
Nc1ncnc2ccc(-c3ccc(CNc4nccc5c4C(=O)N(Cc4ccc(F)c(F)c4)C5)s3)cc12 [Ex. 7.19, 4-({[5-(4-aminoquinazolin-6-yl)thiophen-2-yl]methyl}amino)-2-(3,4-difluorobenzyl)-1,2-dihydro-3H-pyrrole[3,4-c]pyridin-3-one] | 0.1 to 1 µM | 1 to 10 µM
C=C1c2ccnc(NCc3ccc(-c4ccc5ncnc(N)c5c4)s3)c2C(=O)N1Cc1ccc(F)c(F)c1 [Ex. 7.20] | 0.1 to 1 µM | 1 to 10 µM
C[C@H](NC(=O)c1cc(I)cnc1NCc1ccc(-c2ccc3ncnc(N)c3c2)s1)c1ccc(F)c(F)c1 [Ex. 7.21.1, 2-({[5-(4-aminoquinazolin-6-yl)thiophen-2-yl]methyl}amino)-N-[(1S)-1-(3,4-difluorophenyl)ethyl]-5-iodopyridine-3-carboxamide] | 0.1 to 1 µM | < 1 µM
NC(=O)c1cnc(NCc2ccc(-c3ccc4ncnc(N)c4c3)s2)c(C(=O)NCc2ccc(F)c(F)c2)c1 [Ex. 7.24.1, 2-({[5-(4-aminoquinazolin-6-yl)thiophen-2-yl]methyl}amino)-N˜3˜-(3,4-difluorobenzyl)pyridine-3,5-dicarboxamide] | < 0.1 µM | < 1 µM
C[C@@H](c1ccc(F)c(F)c1)n1cnc2c(C#N)cnc(NCc3ccc(-c4ccc5ncnc(N)c5c4)s3)c2c1=O [Ex. 7.25, (S)-5-(((5-(4-aminoquinazolin-6-yl)thiophen-2-yl)methyl)amino)-3-(1-(3,4-difluorophenyl)ethyl)-4-oxo-3,4-dihydropyrido[4,3-d]pyrimidine-8-carbonitrile] | < 0.1 µM | < 1 µM
Nc1ncnc2ccc(-c3ccc(CNc4ncc(OCc5ccccc5)cc4C(=O)NCc4ccc(F)c(F)c4)s3)cc12 [Ex. 8.1.1, 2-({[5-(4-aminoquinazolin-6-yl)thiophen-2-yl]methyl}amino)-5-(benzyloxy)-N-(3,4-difluorobenzyl)pyridine-3-carboxamide] | < 0.1 µM | 1 to 10 µM
Nc1ncnc2ccc(-c3ccc(CNc4ncc([N+](=O)[O-])cc4C(=O)NCc4ccc(F)c(F)c4)s3)cc12 [Ex. 8.2, 2-{[5-(4-Amino-quinazolin-6-yl)-thiophen-2-ylmethyl]-amino}-N-(3,4-difluoro-benzyl)-5-nitro-nicotinamide] | < 0.1 µM | < 1 µM
Nc1ncnc2ccc(-c3ccc(CNc4ncc(I)cc4C(=O)NCc4ccc(F)c(F)c4)s3)cc12 [Ex. 8.3, 2-{[5-(4-amino-quinazolin-6-yl)-thiophen-2-ylmethyl]-amino}-N-(3,4-difluoro-benzyl)-5-iodo-nicotinamide] | < 0.1 µM | < 1 µM
Nc1cnc(NCc2ccc(-c3ccc4ncnc(N)c4c3)s2)c(C(=O)NCc2ccc(F)c(F)c2)c1 [Ex. 8.4, 2-({[5-(4-aminoquinazolin-6-yl)thiophen-2-yl]methyl}amino)-N-(3,4-difluorobenzyl)-5-aminopyridine-3-carboxamide] | < 0.1 µM | 1 to 10 µM
CC(=O)Nc1cnc(NCc2ccc(-c3ccc4ncnc(N)c4c3)s2)c(C(=O)NCc2ccc(F)c(F)c2)c1 [Ex. 8.5.1, 5-(acetylamino)-2-({[5-(4-aminoquinazolin-6-yl)thiophen-2-yl]methyl}amino)-N-(3,4-difluorobenzyl)pyridine-3-carboxamide] | < 0.1 µM | 1 to 10 µM
CS(=O)(=O)Nc1cnc(NCc2ccc(-c3ccc4ncnc(N)c4c3)s2)c(C(=O)NCc2ccc(F)c(F)c2)c1 [Ex. 8.6.1, 2-({[5-(4-aminoquinazolin-6-yl)thiophen-2-yl]methyl}amino)-N-(3,4-difluorobenzyl)-5-[(methylsulfonyl)amino]pyridine-3-carboxamide] | < 0.1 µM | < 1 µM
CNS(=O)(=O)c1cnc(NCc2ccc(-c3ccc4ncnc(N)c4c3)s2)c(C(=O)NCc2ccc(F)c(F)c2)c1 [Ex. 8.7.1, 2-(((5-(4-aminoquinazolin-6-yl)thiophen-2-yl)methyl)amino)-N-(3,4-difluorobenzyl)-5-(N-methylsulfamoyl)nicotinamide] | 0.1 to 1 µM | < 1 µM
N#Cc1cnc(NCc2ccc(-c3ccc4ncnc(N)c4c3)s2)c(C(=O)NCc2ccc(F)c(F)c2)c1 [Ex. 8.8.1, 2-(((5-(4-aminoquinazolin-6-yl)thiophen-2-yl)methyl)amino)-5-cyano-N-(3,4-difluorobenzyl)nicotinamide] | < 0.1 µM | < 1 µM
Nc1ncnc2ccc(-c3ccc(CNc4ncc(C5COC5)cc4C(=O)NCc4ccc(F)c(F)c4)s3)cc12 [Ex. 8.8.4, 2-((5-(4-aminoquinazolin-6-yl)thiophen-2-yl)methylamino)-N-(3,4-difluorobenzyl)-5-(oxetan-3-yl)nicotinamide] | < 0.1 µM | < 1 µM
Nc1ncnc2ccc(-c3ccc(CNc4ncc(Br)cc4C(=O)NCc4ccc(F)c(F)c4)s3)cc12 [Ex. 8.9, 2-({[5-(4-aminoquinazolin-6-yl)thiophen-2-yl]methyl}amino)-N-(3,4-difluorobenzyl)-5-bromopyridine-3-carboxamide] | < 0.1 µM | < 1 µM
C#Cc1cnc(NCc2ccc(-c3ccc4ncnc(N)c4c3)s2)c(C(=O)NCc2ccc(F)c(F)c2)c1 [Ex. 8.10, 2-(((5-(4-aminoquinazolin-6-yl)thiophen-2-yl)methyl)amino)-N-(3,4-difluorobenzyl)-5-ethynylnicotinamide] | < 0.1 µM | < 1 µM
Nc1ncnc2ccc(-c3ccc(CNc4ncc(C(F)(F)F)cc4C(=O)NCc4ccc(F)c(F)c4)s3)cc12 [Ex. 8.12.1, 2-(((5-(4-aminoquinazolin-6-yl)thiophen-2-yl)methyl)amino)-N-(3,4-difluorobenzyl)-5-(trifluoromethyl)nicotinamide] | < 0.1 µM | < 1 µM
